Measured values reported in publication doi:10.1101/2021.09.30.462664v1 (biorxiv, 2021).
Where a chain is given by its changes, count along the chain named.

Assays:
Assay in all cases: whole-cell patch clamp, V0.[…] shift, Hill fit
Format in all cases: cell-based
[1] = biological target: KCNQ2/3 channel (KCNQ2/3 heteromers) (Homo sapiens, UniProt O43525+O43526)
[2] = biological target: T1, KCNQ3 (homomer; KCNQ3T = KCNQ3-A315T) (Homo sapiens, UniProt O43525, A315T)
T1 sequence (O43525 1-872 A315T): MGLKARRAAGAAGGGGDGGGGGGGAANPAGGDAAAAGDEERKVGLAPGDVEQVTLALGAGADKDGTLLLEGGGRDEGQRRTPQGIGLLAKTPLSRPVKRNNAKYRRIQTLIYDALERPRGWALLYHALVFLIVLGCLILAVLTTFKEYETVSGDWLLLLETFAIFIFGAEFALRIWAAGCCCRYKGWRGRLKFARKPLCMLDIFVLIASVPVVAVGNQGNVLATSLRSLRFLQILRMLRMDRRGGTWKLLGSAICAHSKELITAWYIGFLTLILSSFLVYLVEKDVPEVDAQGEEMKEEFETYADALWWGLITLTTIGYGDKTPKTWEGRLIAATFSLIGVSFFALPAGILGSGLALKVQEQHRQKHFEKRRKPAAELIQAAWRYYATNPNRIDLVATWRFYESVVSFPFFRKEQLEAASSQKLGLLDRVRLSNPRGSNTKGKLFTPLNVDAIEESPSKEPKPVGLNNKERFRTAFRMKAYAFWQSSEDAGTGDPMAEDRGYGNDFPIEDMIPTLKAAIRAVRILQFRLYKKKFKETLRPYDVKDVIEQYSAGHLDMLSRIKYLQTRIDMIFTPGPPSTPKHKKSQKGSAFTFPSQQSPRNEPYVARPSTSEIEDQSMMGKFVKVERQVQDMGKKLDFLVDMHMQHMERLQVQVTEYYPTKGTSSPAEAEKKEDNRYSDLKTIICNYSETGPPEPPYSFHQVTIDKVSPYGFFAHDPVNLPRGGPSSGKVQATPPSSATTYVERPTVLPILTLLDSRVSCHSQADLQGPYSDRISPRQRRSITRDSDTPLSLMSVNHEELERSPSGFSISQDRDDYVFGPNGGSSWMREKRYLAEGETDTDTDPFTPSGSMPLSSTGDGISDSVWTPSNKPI

[3] = biological target: T2, KCNQ3 (homomer; KCNQ3T = KCNQ3-A315T) (Homo sapiens, UniProt O43525, A315T/F167A)
T2 sequence (O43525 1-872 F167A/A315T): T1 sequence (O43525 1-872 A315T) with F167A

[4] = biological target: T3, KCNQ3 (homomer; KCNQ3T = KCNQ3-A315T) (Homo sapiens, UniProt O43525, A315T/S209A)
T3 sequence (O43525 1-872 S209A/A315T): T1 sequence (O43525 1-872 A315T) with S209A

KCNQ2/3 channel (KCNQ2/3 heteromers), sequence (O43525 whole entry): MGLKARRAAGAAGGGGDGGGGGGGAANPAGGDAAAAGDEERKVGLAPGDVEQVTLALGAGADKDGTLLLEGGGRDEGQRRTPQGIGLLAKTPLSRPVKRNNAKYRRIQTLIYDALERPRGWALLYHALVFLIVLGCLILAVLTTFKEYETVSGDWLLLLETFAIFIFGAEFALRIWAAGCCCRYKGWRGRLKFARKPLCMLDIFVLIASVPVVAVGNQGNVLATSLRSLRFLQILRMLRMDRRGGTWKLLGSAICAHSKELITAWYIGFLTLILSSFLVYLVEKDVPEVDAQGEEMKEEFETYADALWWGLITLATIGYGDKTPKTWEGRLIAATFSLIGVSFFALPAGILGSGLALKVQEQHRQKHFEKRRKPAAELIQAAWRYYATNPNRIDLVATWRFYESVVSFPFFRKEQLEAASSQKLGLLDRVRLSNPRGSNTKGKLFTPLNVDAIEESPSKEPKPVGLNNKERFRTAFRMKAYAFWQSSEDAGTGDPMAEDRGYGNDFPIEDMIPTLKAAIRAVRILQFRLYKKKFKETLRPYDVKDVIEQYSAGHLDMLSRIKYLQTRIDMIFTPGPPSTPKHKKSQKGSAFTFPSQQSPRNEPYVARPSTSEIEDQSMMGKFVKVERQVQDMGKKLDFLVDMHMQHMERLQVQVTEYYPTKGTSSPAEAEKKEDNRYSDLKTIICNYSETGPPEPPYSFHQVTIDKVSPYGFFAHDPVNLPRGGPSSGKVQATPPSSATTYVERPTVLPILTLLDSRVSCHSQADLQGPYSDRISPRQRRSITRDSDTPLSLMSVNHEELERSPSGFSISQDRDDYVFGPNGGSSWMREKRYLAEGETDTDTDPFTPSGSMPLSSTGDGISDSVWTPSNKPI
KCNQ2/3 channel (KCNQ2/3 heteromers), sequence (O43526 whole entry): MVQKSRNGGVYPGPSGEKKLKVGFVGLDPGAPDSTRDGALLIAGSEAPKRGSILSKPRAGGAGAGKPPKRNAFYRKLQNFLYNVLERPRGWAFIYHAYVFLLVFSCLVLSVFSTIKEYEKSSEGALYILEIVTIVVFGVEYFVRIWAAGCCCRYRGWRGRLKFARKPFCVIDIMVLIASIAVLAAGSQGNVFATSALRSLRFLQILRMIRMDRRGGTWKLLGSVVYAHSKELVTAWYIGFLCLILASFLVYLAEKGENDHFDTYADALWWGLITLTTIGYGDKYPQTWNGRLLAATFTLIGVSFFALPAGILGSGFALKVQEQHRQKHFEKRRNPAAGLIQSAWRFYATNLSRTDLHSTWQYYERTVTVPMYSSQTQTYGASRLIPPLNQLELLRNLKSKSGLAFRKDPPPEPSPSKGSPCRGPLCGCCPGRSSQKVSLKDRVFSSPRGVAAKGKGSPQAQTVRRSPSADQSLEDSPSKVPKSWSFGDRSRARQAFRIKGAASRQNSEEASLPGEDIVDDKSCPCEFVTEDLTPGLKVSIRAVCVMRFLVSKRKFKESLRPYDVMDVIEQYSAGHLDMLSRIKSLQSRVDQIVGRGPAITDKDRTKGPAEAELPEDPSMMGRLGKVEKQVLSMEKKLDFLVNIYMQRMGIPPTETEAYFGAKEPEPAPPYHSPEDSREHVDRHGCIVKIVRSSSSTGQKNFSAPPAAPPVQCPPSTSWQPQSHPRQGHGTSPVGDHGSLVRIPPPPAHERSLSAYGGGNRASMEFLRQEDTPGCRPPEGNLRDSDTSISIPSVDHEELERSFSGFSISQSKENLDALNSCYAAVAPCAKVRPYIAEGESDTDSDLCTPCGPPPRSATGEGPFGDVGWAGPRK

Question: Which EC50 [1] does the source give for `CCOC(=O)Nc1ccc(NCc2ccc(F)cc2)cc1N` [retigabine] here?
Answer: Its EC50 is 3.6 µM.

Question: How did the EC50 [2] turn out when `Oc1cc(Cl)ccc1Oc1ccc(Cl)cc1Cl` [triclosan] was run?
Answer: The EC50 was 38 µM.

Question: What about the EC50 [1] of the same molecule?
Answer: Its EC50 is 32 µM.

Question: What about the EC50 [3] of the same molecule?
Answer: The EC50 was 42 µM.

Question: What about the EC50 [4] of the same molecule?
Answer: Its EC50 is 46 µM.
